Reference: PMC10721786, “Development of a potent benzonitrile-based inhibitor of glutaminyl-peptide cyclotransferase-like protein (QPCTL) with antitumor efficacy” (Signal Transduction and Targeted Therapy, 2023)

How the values were obtained:
[1] = molecular target: T1, QPCTL (Homo sapiens, UniProt Q9NXS2); test: Enzyme activity assay (fluorescent, H-Gln-AMC / PGPEP I coupled) against QPCTL; type: biochemical; settings: mean ± SD of three independent experiments
T1 construct: made in house; host or cells: Escherichia coli BL21 (DE3)
T1 sequence (Q9NXS2 whole entry): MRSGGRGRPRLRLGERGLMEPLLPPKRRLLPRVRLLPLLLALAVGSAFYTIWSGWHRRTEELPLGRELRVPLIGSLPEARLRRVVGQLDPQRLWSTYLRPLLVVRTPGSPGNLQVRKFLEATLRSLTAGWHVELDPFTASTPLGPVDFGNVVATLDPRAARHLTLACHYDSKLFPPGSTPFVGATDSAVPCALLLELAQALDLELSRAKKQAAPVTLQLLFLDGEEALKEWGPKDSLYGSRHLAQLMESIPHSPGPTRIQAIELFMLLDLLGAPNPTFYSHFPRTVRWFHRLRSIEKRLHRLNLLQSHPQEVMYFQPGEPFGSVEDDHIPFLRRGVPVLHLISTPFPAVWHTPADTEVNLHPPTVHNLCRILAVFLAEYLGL
Description: The DNA with sequence coding for the human glutaminyl-peptide cyclotransferase-like protein (nucleotide entry: NP_060129) was synthesized and then inserted into the pGEX-4T-2 vector. The vector was transformed into Escherichia coli BL21 (DE3) competent cells (Tiangen Biotech, Cat. # CB105). The bacteria were grown in LB media containing ampicillin (100 μg/ mL) at 37 °C until the cell density reached an OD600 of 0.8- 0.9. The cultures were induced with 1 mM IPTG for 8- 10 h at 20 °C. The bacteria were collected and resuspended in 50 mL PBS, and 1% Triton X-100 (v/v), 1% β-mercaptoethanol (v/v), PMSF (final concentration 1 mM) were added into the mixed solution. The bacterial cells were then harvested by centrifugation (4,700 g for 30 min at 4 °C) followed by ultrasonic breaking. The resulted solution was clarified by centrifugation at 13,800 g for 30 min. GST-beads was suspended to the supernatant and was gently shook for 1 hour to bind the protein. The resulted protein solution was centrifuged at 1,500 g for 5 min and the supernatant was discarded. At least 10-fold the volume of PBS was added to the pellet to sufficiently suspend the beads in the solution. Then the solution was clarified by centrifugation at 1,500 g for 5 min and the supernatant was discarded. The above steps were repeated twice. 1 mL GST elution buffer was added to the pellet and the solution was shaken gently for 30 min following by centrifugation at 1,500 g for 5 min. The supernatant was collected and was eluted with GST elution buffer at least twice. The supernatant was loaded onto SDS-PAGE electrophoresis to detect protein purity. The protein was stored in 20% glycerol at -80 °C.
Enzyme activity was measured by conversion of glutamine-4-amino-7-methylcounarine (H-Gln-AMC) to pyroglutamyl-AMC, which is subsequently a specific substrate for PGPEP I, releasing free AMC which can be fluorescently detected. For typical inhibition assay, 12.5 μL QPCTL protein (7 ng/μL) or QPCT protein (7 ng/μL) (MedChemExpress, Cat. #HY-P76560) and 2.5 μL of tested compounds with different concentrations were pipetted into a 384-well plate on ice. The reaction system was reacted in a shaker at 37 °C, 100 rpm for 10 minutes. Next, 10 μL fluorescent substrate H-Gln-AMC (500 μM) was added and incubated in 100 rpm for 20 min at 37 °C. […] Once done, the plate was moved over to TECAN Infinite 200PRO plate-reader to monitor and record the maximum fluorescence at 380nm excitation/ 460nm emission. The fluorescent signal value obtained was analyzed by Graphpad Prism 8.0 to obtain the inhibitory rate and IC50 of the compound.

[2] = tested on: pGlu-CD47; test: hCD47-CC2C6 binding to various cancer cells (H929, HCT116, Huh7, SKOV3, SU-DHL-8, T24, H1299, MCF-7); type: cell-based, human; settings: 500 nM, 48 h
Description: (§1) Binding to cell surface CD47 was assessed by staining cells with fluorochrome-labeled antibodies clone CC2C6 (BioLegend, Cat. # 323102) and B6H12 (Abcam, Cat. # ab134485) to human CD47 at a dilution of 1:100 in PBS containing 1% FBS (FACS buffer) for 30 min on ice, while protected from light. SIRPα binding to CD47 was assessed by incubating cells with PE labeled recombinant human SIRPα/ CD172α Protein, Fc tag (ACRO Biosystems, Cat. # SIA-HP252) or PE labeled mouse SIRPα Protein, His tag (ACRO Biosystems, Cat. # SIA-MP2H6) for 1 hour on ice, while protected from light.

[3] = tested on: CD47/SIRPα; test: Cell surface binding of human or mouse SIRPα protein to tumor cells (Raji, B16F10), flow cytometry; type: cell-based
Description: as §1

[4] = tested on: CD47; test: Overall cell surface CD47 (hCD47-B6H12 binding) in HEK293T and Raji cells; type: cell-based, human; settings: 100 nM, 48 h
Description: as §1

[5] = tested on: pGlu-CD47; test: Flow cytometry of pGlu-CD47 (hCD47-CC2C6 binding) in Raji cells; type: cell-based, human; settings: 100 nM, 48 h
Description: as §1

[6] = tested on: pGlu-CD47; test: Flow cytometry of pGlu-CD47 (hCD47-CC2C6 binding) in HEK293T cells; type: cell-based, human; settings: for IC50: Homo sapiens, HEK-293T, treatment 48 h, read-out: IC50, dose-dependent inhibition of pGlu-CD47
Description: as §1

SMILES | IC50 [1] [µM] | further results
COc1ccncc1-c1cccc(C#N)c1N1CCC(c2nncn2C)CC1 [Compound 16] | > 1 | –
Cn1cnnc1C1CCN(c2c(C#N)cccc2-c2ccccc2)CC1 [Compound 6] | > 1 | –
Cn1cnnc1C1CCN(c2c(C#N)cccc2-c2ccc(N)nc2)CC1 [Compound 12] | 0.471 ± 0.244 | –
Cn1cnnc1C1CCN(c2c(C#N)cccc2-c2ccc(F)nc2)CC1 [QP5020] | – | CD47 pyroglutamation in various types of cancer cells [2]: significantly attenuated; binding of human or mouse SIRPα protein to cell surface [3]: significantly reduced; overall cell surface levels of CD47 [4]: did not alter; inhibitory effect on CD47 pyroglutamation compared to SEN177 and PQ912 [5]: superior inhibitory effects; inhibitory effect on CD47 pyroglutamation compared to SEN177 and PQ912 ([6]; 100 nM, 48 h): superior inhibitory effects; IC50 [6]: 0.0064 ± 0.0007 µM
COc1ccc(-c2cccc(C#N)c2N2CCC(c3nncn3C)CC2)cn1 [Compound 13] | 0.368 ± 0.082 | –
Cn1cnnc1C1CCN(c2c(C#N)cccc2-c2cncc(F)c2)CC1 [Compound 14] | 0.0736 ± 0.0115 | –
Cn1cnnc1C1CCN(c2c(C#N)cccc2-c2cncc(C#N)c2)CC1 [Compound 15] | 0.124 ± 0.0098 | –
Cn1cnnc1C1CCN(c2c(C#N)cccc2-c2cncnc2)CC1 [Compound 9] | 0.0765 ± 0.0213 | –
Cn1cnnc1C1CCN(c2ccccc2C#N)CC1 [Compound 8] | > 1 | –
Cn1cnnc1C1CCN(c2c(C#N)cccc2-c2ccc(C#N)nc2)CC1 [Compound 11] | 0.417 ± 0.21 | –
Cn1cnnc1C1CCN(c2c(C#N)cccc2-c2ccncc2)CC1 [Compound 7] | > 1 | –
Cn1cnnc1C1CCN(c2c(C#N)cccc2-c2ccc(C(F)(F)F)nc2)CC1 [Compound 10] | > 1 | –
Cn1cnnc1C1CCN(c2c(C#N)cccc2-c2cccnc2)CC1 [Compound 5] | 0.0565 ± 0.0113 | –

Continued, in another order:

IC50 [1] [µM] | SMILES | further results
0.135 ± 0.0643 | Cn1cnnc1C1CCN(c2c(C#N)cccc2-c2ccoc2)CC1 [Compound 24] | –
0.0943 ± 0.0139 | Cc1nnc(C2CCN(c3c(C#N)cccc3-c3ccc(F)nc3)CC2)n1C [Compound 26] | –
0.0745 ± 0.0134 | Cc1ccncc1-c1cccc(C#N)c1N1CCC(c2nncn2C)CC1 [Compound 18] | –
> 1 | CC(C)n1cnnc1C1CCN(c2c(C#N)cccc2-c2ccc(F)nc2)CC1 [Compound 27] | –
0.0196 ± 0.0125 | Cn1cnnc1C1CCN(c2c(C#N)cccc2-c2ccn(C)c(=O)c2)CC1 [Compound 23] | –
0.0518 ± 0.0062 | CCCOc1ccc([C@H]2CNC(=O)N2c2ccc3[nH]cnc3c2)cc1 [PQ912, reference compound] | IC50 [6]: 0.988 ± 0.409 µM
> 1 | Cc1noc(C)c1-c1cccc(C#N)c1N1CCC(c2nncn2C)CC1 [Compound 25] | –
> 1 | N#Cc1cccc(-c2ccc(F)nc2)c1N1CCC(c2cnc[nH]2)CC1 [Compound 29] | –
0.573 ± 0.0855 | Cn1cnnc1C1CCN(c2c(C#N)cccc2-c2ccc(=O)n(C)c2)CC1 [Compound 21] | –
0.187 ± 0.0208 | Cn1cnnc1C1CCN(c2c(C#N)cccc2-c2ccc(O)nc2)CC1 [Compound 20] | –
0.0176 ± 0.0062 | Cn1cnnc1C1CCN(c2c(C#N)cccc2-c2cc[nH]c(=O)c2)CC1 [Compound 22] | –
0.105 ± 0.0223 | Cn1cnnc1C1CCN(c2c(C#N)cccc2-c2cnccc2Cl)CC1 [Compound 19] | –
0.0535 ± 0.0118 | Cn1cnnc1C1CCN(c2c(C#N)cccc2-c2cnccc2C(F)(F)F)CC1 [Compound 17] | –
